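These data come from cells grown in 96-well plates and exposed to compound for 48 hours at five concentrations. At the GI50, growth is halved. At the TGI there is no net growth.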
Columns and labels:
Assay in all cases: growth of human tumour cells (NCI), 48 h
[1] = test system: NCI-H460 lung
[2] = test system: SK-OV-3 ovarian
[3] = test system: 786-0 renal
[4] = test system: HT29 colon
[5] = test system: EKVX NSCLC
[6] = test system: HOP-92 NSCLC
[7] = test system: OVCAR-8 ovarian
[8] = test system: NCI/ADR-RES ovarian
[9] = test system: T-47D breast
[10] = test system: MDA-MB-435

OCC[N+]12CCCN1CCC2
TGI [1]: > 100 µM
TGI [2]: > 100 µM
TGI [3]: > 100 µM
TGI [4]: > 100 µM
TGI [5]: > 100 µM
TGI [6]: > 100 µM
TGI [7]: > 100 µM

O=C(N/C(=C\c1cccc([N+](=O)[O-])c1)c1nc2ccccc2[nH]1)c1ccccc1
TGI [1]: > 100 µM
TGI [2]: > 100 µM
TGI [3]: > 100 µM
TGI [4]: > 100 µM
TGI [5]: > 100 µM
TGI [6]: > 100 µM
TGI [7]: > 100 µM

Cn1cc(-c2nc(-c3c[nH]c4ncccc34)cs2)c2ccccc21
GI50 [1]: 1.27 µM
TGI [1]: > 100 µM
GI50 [2]: 65.3 µM
TGI [2]: > 100 µM
GI50 [8]: 19.9 µM
TGI [8]: > 100 µM
GI50 [9]: 0.414 µM
TGI [9]: 26.9 µM
GI50 [3]: 91.7 µM
TGI [3]: > 100 µM
GI50 [10]: 3.84 µM
TGI [10]: 30 µM
GI50 [5]: 0.368 µM
TGI [5]: 61.1 µM
GI50 [6]: 2.72 µM
TGI [6]: 36.2 µM
GI50 [7]: 38.2 µM
TGI [7]: > 100 µM

CC(C)(C)c1cc(CCCCCCCC2(CCCCCCCc3cc(C(C)(C)C)cc(C(C)(C)C)c3)OC(COCCOCCCCCC#N)C(COCCOCCCCCC#N)O2)cc(C(C)(C)C)c1 (stereo not drawn)
TGI [1]: > 100 µM
TGI [2]: > 100 µM
TGI [3]: > 100 µM
TGI [4]: > 100 µM
TGI [5]: > 100 µM
TGI [6]: > 100 µM
TGI [7]: > 100 µM

CCOc1cn(C2OC(CO)C(O)C2O)c(=O)[nH]c1=O (stereo not drawn)
TGI [1]: > 100 µM
TGI [2]: > 100 µM
TGI [3]: > 100 µM
TGI [4]: > 100 µM
TGI [5]: > 100 µM
TGI [6]: > 100 µM
TGI [7]: > 100 µM

COc1cc(CNCCN2C(=O)c3ccc4c5c(ccc(c35)C2=O)C(=O)N(CCNCc2cc(OC)c(OC)c(OC)c2)C4=O)cc(OC)c1OC
GI50 [2]: 0.575 µM
TGI [2]: 1.19 µM
GI50 [8]: 2.05 µM
TGI [8]: 50 µM
GI50 [9]: 0.189 µM
TGI [9]: 0.718 µM
GI50 [3]: 0.145 µM
TGI [3]: 0.391 µM

NS(=O)(=O)c1ccc(Nc2c3ccccc3nc3c(C(=O)N4CCN(CCO)CC4)cccc23)cc1
TGI [1]: > 100 µM
TGI [2]: > 100 µM
TGI [3]: > 100 µM
TGI [4]: > 100 µM
TGI [5]: > 100 µM
TGI [6]: > 100 µM
TGI [7]: > 100 µM

COc1ccc(C(=O)c2c3cc(OC)c(OC)c(OC)c3cc[n+]2C)cc1
TGI [1]: > 100 µM
TGI [2]: > 100 µM
TGI [3]: 33.5 µM
TGI [4]: > 100 µM
TGI [5]: > 100 µM
TGI [7]: > 100 µM

Cn1c2c(c3ccccc31)CCN(CCCCN1CCN(c3ccccc3)CC1)C2=O
TGI [1]: > 93.8 µM
TGI [2]: > 100 µM
TGI [9]: > 100 µM
TGI [3]: > 46.4 µM
TGI [10]: 36.7 µM
TGI [4]: 25.4 µM
TGI [5]: > 71.9 µM
TGI [6]: > 100 µM
TGI [7]: > 56.2 µM

CC(=O)O[C@H]1CCN2C(=O)C=CC(OCc3ccccc3)C12 (stereo partly drawn)
TGI [1]: > 100 µM
TGI [2]: > 100 µM
TGI [3]: > 100 µM
TGI [4]: > 100 µM
TGI [5]: > 100 µM
TGI [6]: > 100 µM
TGI [7]: > 100 µM

CC(C)(C)C(=O)Nc1cccc2oc(-c3ccccc3)cc12
TGI [1]: > 100 µM
TGI [2]: > 100 µM
TGI [3]: > 100 µM
TGI [4]: > 100 µM
TGI [5]: > 100 µM
TGI [6]: 96.4 µM
TGI [7]: > 100 µM

COc1cc(N2C(=O)[C@H](c3ccccc3)C2c2ccc(SC)cc2)cc(OC)c1OC (stereo partly drawn)
GI50 [1]: 0.0346 µM
TGI [1]: > 100 µM
GI50 [2]: 0.0676 µM
TGI [2]: > 100 µM
GI50 [8]: 0.0335 µM
TGI [8]: > 100 µM
GI50 [9]: > 100 µM
TGI [9]: > 100 µM
GI50 [3]: 0.0349 µM
TGI [3]: 22.9 µM
GI50 [4]: 0.0324 µM
TGI [4]: 1.76 µM
GI50 [5]: 0.0513 µM
TGI [5]: > 100 µM
GI50 [6]: 0.031 µM
TGI [6]: 16.5 µM
GI50 [7]: 0.0388 µM
TGI [7]: > 100 µM

Cc1ccc(/C=C(\NC(=O)c2ccccc2)c2nc3ccccc3[nH]2)cc1
TGI [1]: > 100 µM
TGI [3]: > 100 µM
TGI [4]: > 100 µM
TGI [5]: > 100 µM
TGI [6]: 86.5 µM
TGI [7]: > 100 µM

CSc1nc2nn(Cc3ccccc3)cc2c(=O)[nH]1
TGI [1]: > 100 µM
TGI [2]: > 100 µM
TGI [3]: > 100 µM
TGI [4]: > 100 µM
TGI [5]: > 100 µM
TGI [6]: > 100 µM
TGI [7]: > 100 µM

CCN(CC)CC(C)C(=O)/C=C/c1ccc(C)cc1 (stereo not drawn)
TGI [1]: 17 µM
TGI [2]: 30.7 µM
TGI [3]: 3.65 µM
TGI [4]: 3.31 µM
TGI [5]: 26.8 µM
TGI [6]: 4.84 µM
TGI [7]: 11.3 µM

NS(=O)(=O)c1ccc(NC(=O)Cc2nc3ccccc3s2)cc1
TGI [1]: 35.6 µM
TGI [2]: 40.5 µM
TGI [3]: 33.5 µM
TGI [4]: 35.4 µM
TGI [5]: 37.2 µM
TGI [6]: 29.8 µM
TGI [7]: 34.9 µM

C=C1C(=O)O[C@H]2[C@H](OC(C)=O)[C@@H](C)CCCC3(C)OC3CCC3(CO3)[C@H](O)C[C@@H]12 (stereo partly drawn)
GI50 [1]: 12.9 µM
TGI [1]: 36 µM
GI50 [2]: 21.2 µM
TGI [2]: 62 µM
GI50 [9]: 13.7 µM
TGI [9]: 62.5 µM
GI50 [3]: 5.15 µM
TGI [3]: 21 µM
GI50 [10]: 9.24 µM
TGI [10]: 28.6 µM
GI50 [4]: 3.42 µM
TGI [4]: > 100 µM
GI50 [5]: 12.1 µM
TGI [5]: 30.3 µM
GI50 [7]: 17.5 µM
TGI [7]: > 100 µM

O=C(/C=C/c1ccccc1O)c1ccc([N+](=O)[O-])cc1
TGI [1]: 50.5 µM
TGI [2]: 70.7 µM
TGI [3]: 32.6 µM
TGI [4]: 36.7 µM
TGI [5]: 43.4 µM
TGI [6]: > 100 µM
TGI [7]: 29.1 µM

CN(C)CC(=O)Nc1ccc2ncnc(Nc3ccc(Oc4cccc(C(F)(F)F)c4)c(Cl)c3)c2c1
GI50 [1]: 1.76 µM
TGI [1]: 3.45 µM
GI50 [8]: 3.06 µM
TGI [8]: 13.2 µM
GI50 [9]: 1.31 µM
TGI [9]: 3.74 µM
GI50 [3]: 1.55 µM
TGI [3]: 2.91 µM
GI50 [10]: 1.66 µM
TGI [10]: 3.14 µM
GI50 [4]: 1.72 µM
TGI [4]: 4.08 µM
GI50 [5]: 1.7 µM
TGI [5]: 8.05 µM
GI50 [6]: 1.27 µM
TGI [6]: 3.55 µM
GI50 [7]: 3.24 µM
TGI [7]: 13.1 µM

CSc1ccc2c(cc1=O)[C@@H](NC(=O)c1ccc(Cl)cc1)CCc1cc(O)c(O)c(O)c1-2
TGI [1]: > 100 µM
TGI [2]: > 100 µM
TGI [3]: > 100 µM
TGI [4]: > 100 µM
TGI [5]: > 100 µM
TGI [6]: > 100 µM
TGI [7]: > 100 µM

C[C@@H](NS(=O)(=O)c1ccc(NC(=O)c2ccccc2)cc1)C(=O)O
TGI [1]: > 100 µM
TGI [2]: > 100 µM
TGI [3]: > 100 µM
TGI [4]: > 100 µM
TGI [5]: > 100 µM
TGI [6]: > 100 µM
TGI [7]: > 100 µM

O=c1cnnc(N/N=C/c2ccccc2O)[nH]1
GI50 [1]: 1.56 µM
TGI [1]: > 100 µM
GI50 [2]: 3.6 µM
TGI [2]: > 100 µM
GI50 [8]: 1.28 µM
TGI [8]: > 64.5 µM
GI50 [9]: 0.0656 µM
TGI [9]: > 100 µM
GI50 [3]: 5.1 µM
TGI [3]: > 100 µM
GI50 [10]: 3.54 µM
TGI [10]: > 100 µM
GI50 [4]: 0.646 µM
TGI [4]: > 100 µM
GI50 [6]: 4.75 µM
TGI [6]: > 100 µM
GI50 [7]: 1.81 µM
TGI [7]: > 100 µM
